Reference: PubChem BioAssay AID248 (DTP/NCI, 2004)
“And” between values parts separate entries of the source, which are not always exact repeats. Identical values can stand only once. Inconclusive results and toxic doses are left out. Rule as the data show it: active = T/C of 150% or more; inactive = T/C below 125%.

Test system: L1210 leukemia ip in BDF1 mice, survival T/C
Experiment: NCI In Vivo Anticancer Drug Screen. Data for tumor model L1210 Leukemia (intraperitoneal) in B6D2F1 (BDF1) mice
Settings: endpoint: mean survival time, higher = longer survival
Summary of the method: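 Mice bearing the transplanted tumor received compound or vehicle. Survival of the treated group was divided by that of the vehicle-treated control group to give the ratio.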

[1] = dose: 100.0 mg/kg/injection, schedule: Q04DX003 (ip), vehicle: saline
[2] = dose: 200.0 mg/kg/injection, schedule: Q04DX003 (ip), vehicle: saline
[3] = dose: 400.0 mg/kg/injection, schedule: Q04DX003 (ip), vehicle: saline
[4] = dose: 50.0 mg/kg/injection, schedule: Q01DX009 (ip), vehicle: saline with Tween-80
[5] = dose: 100.0 mg/kg/injection, schedule: Q01DX009 (ip), vehicle: saline with Tween-80
[6] = dose: 100.0 mg/kg/injection, schedule: Q04DX003 (ip), vehicle: saline with Tween-80
[7] = dose: 200.0 mg/kg/injection, schedule: Q04DX003 (ip), vehicle: saline with Tween-80
[8] = dose: 100.0 mg/kg/injection, schedule: Q04DX003 (ip), vehicle: Klucel (hydroxypropylcellulose) (HPC)
[9] = dose: 200.0 mg/kg/injection, schedule: Q04DX003 (ip), vehicle: Klucel (hydroxypropylcellulose) (HPC)
[10] = dose: 400.0 mg/kg/injection, schedule: Q04DX003 (ip), vehicle: Klucel (hydroxypropylcellulose) (HPC)
[11] = dose: 100.0 mg/kg/injection, schedule: Q01DX001 (ip), vehicle: other
[12] = dose: 200.0 mg/kg/injection, schedule: Q01DX001 (ip), vehicle: other
[13] = dose: 400.0 mg/kg/injection, schedule: Q01DX001 (ip), vehicle: other
[14] = dose: 200.0 mg/kg/injection, schedule: Q01DX009 (ip), vehicle: saline with Tween-80

Measured: T/C

CCC(N)CC
inactive: dose: 75.0 mg/kg/injection, schedule: Q01DX009 (ip), vehicle: saline 104 % of control | [1] 105 % of control | dose: 150.0 mg/kg/injection, schedule: Q01DX009 (ip), vehicle: saline 96 % of control and 100 % of control | [2] 103 % of control

O=C(Nc1ccc2c(c1)C(=O)c1ccccc1-2)c1ccccc1
inactive: dose: 100.0 mg/kg/injection, schedule: Q01DX001 (ip), vehicle: saline with Tween-80 88 % of control | dose: 200.0 mg/kg/injection, schedule: Q01DX001 (ip), vehicle: saline with Tween-80 88 % of control | dose: 400.0 mg/kg/injection, schedule: Q01DX001 (ip), vehicle: saline with Tween-80 88 % of control

C[Si](C)(O[Si](C)(C)c1ccccc1)c1ccccc1
inactive: dose: 20.0 mg/kg/injection, schedule: Q01DX009 (ip), vehicle: saline 93 % of control | dose: 40.0 mg/kg/injection, schedule: Q01DX009 (ip), vehicle: saline 90 % of control | dose: 80.0 mg/kg/injection, schedule: Q01DX009 (ip), vehicle: saline 87 % of control | dose: 100.0 mg/kg/injection, schedule: Q01DX009 (ip), vehicle: saline 95 % of control | [1] 103 % of control | dose: 200.0 mg/kg/injection, schedule: Q01DX009 (ip), vehicle: saline 107 % of control | [2] 100 % of control | [3] 97 % of control

Cc1ncnc2c1CCC2
inactive: [4] 96 % of control | [5] 105 % of control | [6] 97 % of control | [7] 97 % of control

NCCNc1ncnc2c1ncn2C1OC(CO)C(O)C1O (stereo not drawn)
inactive: dose: 6.25 mg/kg/injection, schedule: Q01DX009 (ip), vehicle: saline 115 % of control | dose: 12.5 mg/kg/injection, schedule: Q01DX005 (ip), vehicle: saline 101 % of control | dose: 12.5 mg/kg/injection, schedule: Q01DX009 (ip), vehicle: saline 111 % of control | dose: 25.0 mg/kg/injection, schedule: Q01DX005 (ip), vehicle: saline 100 % of control | dose: 25.0 mg/kg/injection, schedule: Q01DX009 (ip), vehicle: saline 117 % of control | dose: 50.0 mg/kg/injection, schedule: Q01DX005 (ip), vehicle: saline 97 % of control | dose: 100.0 mg/kg/injection, schedule: Q01DX005 (ip), vehicle: saline 86 % of control

CCOC(=O)CCN(CCC(=O)OCC)C1CC1c1ccccc1 (stereo not drawn)
inactive: [8] 100 % of control | [9] 95 % of control | [10] 100 % of control

CCOC(=O)c1ccc(Cl)cc1
inactive: [5] 88 % of control | [8] 97 % of control | [9] 102 % of control | [10] 102 % of control

CCCC(CC)NC(N)=O (stereo not drawn)
inactive: [6] 107 % of control | [7] 95 % of control | dose: 400.0 mg/kg/injection, schedule: Q04DX003 (ip), vehicle: saline with Tween-80 109 % of control

CCCCOP(=S)(Nc1ccccc1)OCCCC
inactive: [8] 107 % of control | [9] 107 % of control | [10] 122 % of control

CC(C)SCC(N)CO (stereo not drawn)
inactive: dose: 12.5 mg/kg/injection, schedule: Q01DX009 (ip), vehicle: water 96 % of control | dose: 25.0 mg/kg/injection, schedule: Q01DX009 (ip), vehicle: water 96 % of control and 117 % of control | dose: 50.0 mg/kg/injection, schedule: Q01DX009 (ip), vehicle: water 99 % of control and 120 % of control | dose: 100.0 mg/kg/injection, schedule: Q01DX009 (ip), vehicle: water 100 % of control and 104 % of control | dose: 200.0 mg/kg/injection, schedule: Q01DX009 (ip), vehicle: water 108 % of control

COc1ccc(CCNC(=O)c2ccccc2N=Cc2cc(Cl)cc(Cl)c2O)cc1OC
inactive: dose: 75.0 mg/kg/injection, schedule: Q01DX009 (ip), vehicle: Klucel (hydroxypropylcellulose) (HPC) 94 % of control | dose: 150.0 mg/kg/injection, schedule: Q01DX009 (ip), vehicle: Klucel (hydroxypropylcellulose) (HPC) 96 % of control | dose: 300.0 mg/kg/injection, schedule: Q01DX009 (ip), vehicle: Klucel (hydroxypropylcellulose) (HPC) 96 % of control

Cn1c(N)c(N=Cc2ccncc2)c(=O)n(C)c1=O
inactive: dose: 50.0 mg/kg/injection, schedule: Q01DX001 (ip), vehicle: other 103 % of control | [11] 92 % of control | [12] 94 % of control | [13] 97 % of control

O=P(Cc1ccccc1)(OCCCl)Oc1ccccc1 (stereo not drawn)
inactive: dose: 100.0 mg/kg/injection, schedule: Q01DX009 (ip), vehicle: Klucel (hydroxypropylcellulose) (HPC) 102 % of control | [8] 91 % of control | dose: 200.0 mg/kg/injection, schedule: Q01DX009 (ip), vehicle: Klucel (hydroxypropylcellulose) (HPC) 98 % of control | [9] 96 % of control | dose: 400.0 mg/kg/injection, schedule: Q01DX009 (ip), vehicle: Klucel (hydroxypropylcellulose) (HPC) 96 % of control | [10] 96 % of control

CNC(=O)c1ccccc1-c1ccccc1C(=O)NC
inactive: [11] 102 % of control | [12] 102 % of control | [13] 98 % of control

COc1ccc(NC(=O)NCc2ccc(C)cc2)cc1
inactive: dose: 100.0 mg/kg/injection, schedule: Q04DX002 (ip), vehicle: Klucel (hydroxypropylcellulose) (HPC) 104 % of control | dose: 200.0 mg/kg/injection, schedule: Q04DX002 (ip), vehicle: Klucel (hydroxypropylcellulose) (HPC) 104 % of control | dose: 400.0 mg/kg/injection, schedule: Q04DX002 (ip), vehicle: Klucel (hydroxypropylcellulose) (HPC) 96 % of control

C/C(=C\COc1ccc(C)cc1)CC/C=C(\C)CCC1OC1(C)C (stereo not drawn)
inactive: dose: 50.0 mg/kg/injection, schedule: Q04DX002 (ip), vehicle: saline with Tween-80 108 % of control | dose: 100.0 mg/kg/injection, schedule: Q04DX002 (ip), vehicle: saline with Tween-80 108 % of control | dose: 200.0 mg/kg/injection, schedule: Q04DX002 (ip), vehicle: saline with Tween-80 92 % of control

Cc1ccc(S(=O)(=O)Cl)c(Cl)c1
inactive: [4] 92 % of control | [5] 94 % of control | [14] 91 % of control

CCN(CC)CCOc1ccc(-c2nc3cc(Cl)ccc3s2)cc1
inactive: dose: 15.0 mg/kg/injection, schedule: Q01DX015 (ip), vehicle: saline 95 % of control | dose: 30.0 mg/kg/injection, schedule: Q01DX015 (ip), vehicle: saline 94 % of control | dose: 60.0 mg/kg/injection, schedule: Q01DX015 (ip), vehicle: saline 94 % of control | dose: 120.0 mg/kg/injection, schedule: Q01DX015 (ip), vehicle: saline 91 % of control

Fc1nc(F)nc(F)n1
inactive: dose: 12.0 mg/kg/injection, schedule: Q01DX009 (ip), vehicle: Klucel (hydroxypropylcellulose) (HPC) 89 % of control | dose: 25.0 mg/kg/injection, schedule: Q01DX009 (ip), vehicle: Klucel (hydroxypropylcellulose) (HPC) 94 % of control | dose: 50.0 mg/kg/injection, schedule: Q01DX009 (ip), vehicle: Klucel (hydroxypropylcellulose) (HPC) 112 % of control | [1] 90 % of control | [2] 100 % of control | [3] 102 % of control

COc1ccc(OC(=O)Nc2ccc(SC)cc2)cc1
inactive: [5] 104 % of control | [8] 96 % of control | [14] 90 % of control | [9] 96 % of control | dose: 400.0 mg/kg/injection, schedule: Q01DX009 (ip), vehicle: saline with Tween-80 98 % of control | [10] 102 % of control

COc1ccccc1N=Cc1ccccc1O.[Co]
inactive: [11] 94 % of control | [12] 94 % of control | [13] 93 % of control
